Target: human D1 receptor (Homo sapiens (Human), UniProt P21728)
Assay: Human D1 Receptor PAM Assay (cAMP HTRF, potentiator mode)
Format: cell-based
Details: for EC50: HEK293 cells expressing human D1, with EC20 dopamine (12 nM final), cAMP, read-out: Abs EC50; for % Top (% Potentiation): fitted top, 0% = EC20 dopamine alone, 100% = 5 μM dopamine
Excerpt: The PAM activity of the compounds of the present invention may be measured essentially as described in Svensson et al., An Allosteric Potentiator of the Dopamine D1 Receptor Increases Locomotor Activity in Human D1 Knock-in Mices without Casusing Stereotypy or Tachyphylaxis. J. Pharmacol. Exp. Ther. (2017) 360:117-128.
More specifically, HEK293 cells that stably express the human D1 receptor (Accession number NM_000794) are generated by gene transduction using the pBABE-bleo retroviral vector and selected with Zeocin™ (InvivoGen). At approximately 80% confluency, the cells are harvested using TrypLE™ Express (Gibco), suspended in FBS plus 8% DMSO, and stored in liquid nitrogen. On the day of the assay, cells are thawed and resuspended in STIM buffer (Hanks Balanced Salt Solution supplemented with 0.1% BSA, 20 mM HEPES, 500 μM IBMX, and 100 μM ascorbic acid).
Test compound is serially diluted (1:2) with DMSO into assay plates (ProxiPlate-384 Plus, PerkinElmer) using acoustic dispensing (Labcyte) to provide 20 concentrations for full response curves. Test compound (80 nL) is added to 5 μL STIM buffer containing 2000 cells, and 5 μL of a 2×concentration dopamine solution in STIM buffer that will generate an EC20 level response (24 nM in stock solution, or 12 nM final) and a final DMSO concentration in the well of 0.8%. Plates are incubated at room temperature for a total reaction time of 60 min.
cAMP production is quantified using HTRF® detection (Cisbio) according to the manufacturer's instructions. Generally, lysis buffer containing anti-cAMP cryptate (5 μL) and D2-conjugate (from HTRF® kit)(5 μL) is added to the wells, plates are incubated for an additional 60-90 min, and the time-resolved fluorescence is detected using an EnVision™ plate reader (PerkinElmer). Fluorescence data is converted to cAMP concentrations using a cAMP standard curve and analyzing using a 4-parameter non-linear logistic equation (Genedata Screener, version 13.0.5-standard). For potentiator mode concentration-response curves, results are expressed as percent of the window between a response at EC20 concentration of dopamine alone (normalized to 0%) and the maximum response to dopamine (defined by response to 5 μM dopamine, final concentration, normalized as 100%). Absolute EC50 values are calculated based on the maximum and minimum responses of the control agonist (dopamine). The % Potentiation (% Top) is determined from the fitted top of the concentration response curve.

Sequence of human D1 receptor (P21728 whole entry): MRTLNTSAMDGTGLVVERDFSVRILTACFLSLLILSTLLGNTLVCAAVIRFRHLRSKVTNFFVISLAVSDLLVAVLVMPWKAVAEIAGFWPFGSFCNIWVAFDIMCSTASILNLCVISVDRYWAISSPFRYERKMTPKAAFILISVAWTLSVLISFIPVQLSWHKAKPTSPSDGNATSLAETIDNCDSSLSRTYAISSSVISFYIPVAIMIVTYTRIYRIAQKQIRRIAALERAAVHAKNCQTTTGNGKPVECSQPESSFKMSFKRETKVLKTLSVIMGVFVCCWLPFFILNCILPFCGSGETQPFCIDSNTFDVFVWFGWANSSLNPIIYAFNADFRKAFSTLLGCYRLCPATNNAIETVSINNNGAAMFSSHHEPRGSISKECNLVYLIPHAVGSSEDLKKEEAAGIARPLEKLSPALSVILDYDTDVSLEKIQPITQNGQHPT

Row | Compound | EC50 [µM] | % Top (% Potentiation) [%]
1 | C[C@@H]1c2ccc(F)c([C@@H]3C[C@H]3C(C)(C)O)c2C[C@H](CO)N1C(=O)Cc1c(F)cccc1Cl (relative stereo) [Example 8, 2-(2-chloro-6-fluoro-phenyl)-1-[(1R,3R)-6-fluoro-3-(hydroxymethyl)-5-[trans-2-(1-hydroxy-1-methyl-ethyl)cyclopropyl]-1-methyl-3,4-dihydro-1H-isoquinolin-2-yl]ethenone] | 0.0336 | 78.9
2 | C[C@H]1c2ccc(F)c([C@@H]3C[C@H]3C(C)(C)O)c2C[C@H](CO)N1C(=O)Cc1c(Cl)cccc1Cl (relative stereo) [Example 10, 2-(2,6-dichlorophenyl)-1-[(1S,3R)-6-fluoro-3-(hydroxymethyl)-5-[trans-(1-hydroxy-1-methyl-ethyl)cyclopropyl]-1-methyl-3,4-dihydro-1H-isoquinolin-2-yl]ethenone] | 0.0123 | 86.9
3 | C[C@@H]1c2ccc(F)c([C@@H]3C[C@H]3C(C)(C)O)c2C[C@H](CO)N1C(=O)Cc1c(F)cccc1Cl (relative stereo) [Example 9, 2-(2-chloro-6-fluoro-phenyl)-1-[(1R,3R)-6-fluoro-3-(hydroxymethyl)-5-[trans-2-(1-hydroxy-1-methyl-ethyl)cyclopropyl]-1-methyl-3,4-dihydro-1H-isoquinolin-2-yl]ethenone] | 0.0132 | 82.0
4 | 2-(2,6-Dichlorophenyl)-1-[(1S,3R)-5-[4,4-difluoro-3-hydroxy-3-methyl-butyl]-3-(hydroxymethyl)-1-methyl-3,4-dihydro-1H-isoquinolin-2-yl]ethenone [Example 5] | 0.00796 | 101
5 | 2-(2,6-Dichlorophenyl)-1-[(1S,3R)-5-[4,4-difluoro-3-hydroxy-3-methyl-butyl]-3-(hydroxymethyl)-1-methyl-3,4-dihydro-1H-isoquinolin-2-yl]ethenone [Example 6] | 0.0127 | 97.0
6 | C[C@H]1c2cccc([C@@H]3C[C@@H]3C(C)(C)O)c2C[C@H](CO)N1C(=O)Cc1c(Cl)cccc1Cl (relative stereo) [Example 3, 2-(2,6-Dichlorophenyl)-1-[(1S,3R)-3-(hydroxymethyl)-5-[cis-2-(1-hydroxy-1-methyl-ethyl)cyclopropyl]-1-methyl-3,4-dihydro-1H-isoquinolin-2-yl]ethenone] | 0.0112 | 91.9
7 | C[C@H]1c2cccc([C@@H]3C[C@@H]3C(C)(C)O)c2C[C@H](CO)N1C(=O)Cc1c(Cl)cccc1Cl (relative stereo) [Example 4, 2-(2,6-Dichlorophenyl)-1-[(1S,3R)-3-(hydroxymethyl)-5-[cis-2-(1-hydroxy-1-methyl-ethyl)cyclopropyl]-1-methyl-3,4-dihydro-1H-isoquinolin-2-yl]ethenone] | 0.0867 | 93.2
8 | C[C@H]1c2ccc(F)c([C@@H]3C[C@H]3C(C)(C)O)c2C[C@H](CO)N1C(=O)Cc1c(Cl)cccc1Cl (relative stereo) [Example 11, 2-(2,6-dichlorophenyl)-1-[(1S,3R)-6-fluoro-3-(hydroxymethyl)-5-[trans-(1-hydroxy-1-methyl-ethyl)cyclopropyl]-1-methyl-3,4-dihydro-1H-isoquinolin-2-yl]ethenone] | 0.00519 | 92.7
9 | C[C@H]1c2cccc([C@@H]3C[C@H]3C(C)(C)O)c2C[C@H](CO)N1C(=O)Cc1c(Cl)cccc1Cl (relative stereo) [Example 2, 2-(2,6-Dichlorophenyl)-1-[(1S,3R)-3-(hydroxymethyl)-5-[trans-2-(1-hydroxy-1-methyl-ethyl)cyclopropyl]-1-methyl-3,4-dihydro-1H-isoquinolin-2-yl]ethenone] | 0.00828 | 96.4
10 | C[C@H]1c2cccc([C@@H]3C[C@H]3C(C)(C)O)c2C[C@H](CO)N1C(=O)Cc1c(Cl)cccc1Cl (relative stereo) [Example 1, 2-(2,6-Dichlorophenyl)-1-[(1S,3R)-3-(hydroxymethyl)-5-[trans-2-(1-hydroxy-1-methyl-ethyl)cyclopropyl]-1-methyl-3,4-dihydro-1H-isoquinolin-2-yl]ethenone] | 0.0121 | 94.2
